The target of the experiment is T1, ERR1 (also known as ERR-α or ERR-1) (Homo sapiens, UniProt P11474).
T1 sequence (P11474 193-421 limits assumed): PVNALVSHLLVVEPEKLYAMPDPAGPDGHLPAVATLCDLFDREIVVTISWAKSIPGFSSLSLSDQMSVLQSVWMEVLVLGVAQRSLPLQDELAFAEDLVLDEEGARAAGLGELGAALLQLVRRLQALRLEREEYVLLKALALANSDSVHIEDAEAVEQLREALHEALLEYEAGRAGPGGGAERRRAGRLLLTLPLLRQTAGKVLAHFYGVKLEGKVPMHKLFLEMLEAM
Put plainly: TR-FRET assay (disruption of co-activator peptide binding). Type of experiment: biochemical. Particulars: 6His-tagged ERR1 LBD, GST-hSRC2 co-activator polypeptide; average of 3 independent experiments. The procedure: Time-Resolved Fluorescence Resonance Energy Transfer (TR-FRET) experiments were performed to examine the functional response of ERR1 (also known as ERR-α or ERR-1) ligands. The TR-FRET assay described herein relied on the conformation of ERR1 for binding to a co-activator peptide: when a test compound binds to ERR1 and alters its conformation, it can disrupt the binding of the co-activator peptide. The components of this homogeneous secondary assay included: the ^6His-tagged-ERR1LBD, a GST-labeled-hSRC2 co-activator polypeptide and a fluorescent donor/acceptor pair from CIS bio international htrf/bioassays (Bedford, Mass.) using both an α-GST Europium Cryptate (Eu) label and an α^6His-XL665 (allophycocyanin) fluorophore.
For TR-FRET measurements, the reaction was buffered in 25 mM Tris pH 8, 2.5 mM Hepes, 20 mM KCl, 1 mM DTT, and 0.05 mg/mL BSA (-lipids). The final concentrations of reagents were 6 nM of ERR1LBD, 6 nM GST-SRC-2 peptide, 30 nM Eu cryptate, and 7.5 nM XL665. Reactions were allowed to reach equilibrium at 25° C. for 4-18 hours before collecting data on the Analyst from LJL Biosystems (Molecular Devices Sunnyvale, Calif.). As a time-resolved method, the samples were excited at […] and emission was collected for 1 ms at both 615 and 665 nm with delays of 400 and 75 μs, respectively. Dose response curves were fitted using a hyperbolic equation and the data reported is the average of 3 independent experiments.

With `CN1CCN(C2=NC(=O)/C(=C/c3ccc4c(cnn4Cc4ccc(C(N)=O)cc4C(F)(F)F)c3)S2)CC1` [Compound 20, 4-{5-[2-(4-Methyl-piperazin-1-yl)-4-oxo-4H-thiazol-5-ylidenemethyl]-indazol-1-ylmethyl}-3-trifluoromethyl-benzamide], the EC50 was 300 nM.

The compound `COc1ccc(Cn2ncc3cc(/C=C4\SC(N5CCN(C)CC5)=NC4=O)ccc32)c(C(F)(F)F)c1` [Compound 21, 5-[1-(4-Methoxy-2-trifluoromethyl-benzyl)-1H-indazol-5-ylmethylene]-2-(4-methyl-piperazin-1-yl)-thiazol-4-one] yielded an EC50 of 3 nM.

As to `CN1CCN(C2=NC(=O)/C(=C/c3ccc4c(cnn4Cc4ccc(O)cc4C(F)(F)F)c3)S2)CC1` [Compound 22, 5-[1-(4-Hydroxy-2-trifluoromethyl-benzyl)-1H-indazol-5-ylmethylene]-2-(4-methyl-piperazin-1-yl)-thiazol-4-one], the midpoint of the response, the EC50, lay at 11.4 nM.

`CN1CCN(C2=NC(=O)/C(=C/c3ccc4c(cnn4Cc4ccc(OS(C)(=O)=O)cc4C(F)(F)F)c3)S2)CC1` [Compound 23, Methanesulfonic acid 4-{5-[2-(4-methyl-piperazin-1-yl)-4-oxo-4H-thiazol-5-ylidenemethyl]-indazol-1-ylmethyl}-3-trifluoromethyl-phenyl ester] returned an EC50 of 10.4 nM.

`COCCOc1ccc(Cn2ncc3cc(/C=C4\SC(N5CCN(C)CC5)=NC4=O)ccc32)c(C(F)(F)F)c1` [Compound 24, 5-{1-[4-(2-Methoxy-ethoxy)-2-trifluoromethyl-benzyl]-1H-indazol-5-ylmethylene}-2-(4-methyl-piperazin-1-yl)-thiazol-4-one] had a concentration for a half-maximal effect (EC50) of 520 nM.

Regarding `CN1CCN(C2=NC(=O)/C(=C/c3ccc4c(cnn4Cc4ccc(Cl)cc4Cl)c3)S2)CC1` [Example 25, 5-[1-(2,4-Dichloro-benzyl)-1H-indazol-5-ylmethylene]-2-(4-methyl-piperazin-1-yl)-thiazol-4-one], the EC50 was found to be 68 nM.

As to `CN1CCN(C2=NC(=O)/C(=C/c3ccc4c(cnn4Cc4ccc(Br)cc4C(F)(F)F)c3)S2)CC1` [Example 26, 5-[1-(4-Bromo-2-trifluoromethyl-benzyl)-1H-indazol-5-ylmethylene]-2-(4-methyl-piperazin-1-yl)-thiazol-4-one], the 50% effective concentration (EC50) was 4.8 nM.

Compound `CN1CCN(C2=NC(=O)/C(=C/c3ccc4c(cnn4Cc4ccc(C5CC5)cc4C(F)(F)F)c3)S2)CC1` [Example 27, 5-[1-(4-Cyclopropyl-2-trifluoromethyl-benzyl)-1H-indazol-5-ylmethylene]-2-(4-methyl-piperazin-1-yl)-thiazol-4-one] registered an EC50 of 11 nM.

`CN1CCN(C2=NC(=O)/C(=C/c3ccc4c(cnn4Cc4ccc(C(F)(F)F)cc4Br)c3)S2)CC1` [Example 28, 5-[1-(2-Bromo-4-trifluoromethyl-benzyl)-1H-indazol-5-ylmethylene]-2-(4-methyl-piperazin-1-yl)-thiazol-4-one] returned a concentration giving a half-maximal response (EC50) of 59 nM.

`CN1CCN(C2=NC(=O)/C(=C/c3ccc4c(cnn4Cc4ccc(C(F)(F)F)cc4C4CC4)c3)S2)CC1` [Example 29, 5-[1-(2-Cyclopropyl-4-trifluoromethyl-benzyl)-1H-indazol-5-ylmethylene]-2-(4-methyl-piperazin-1-yl)-thiazol-4-one] showed an EC50 of 38 nM. This EC50 is about 1.6-fold lower than that of the compound before.

In turn, `C=C(C)c1ccc(Cn2ncc3cc(/C=C4\SC(N5CCN(C)CC5)=NC4=O)ccc32)c(C(F)(F)F)c1` [Example 30, 5-[1-(4-Isopropenyl-2-trifluoromethyl-benzyl)-1H-indazol-5-ylmethylene]-2-(4-methyl-piperazin-1-yl)-thiazol-4-one] showed an EC50 of 23 nM.

The compound `O=C1N=C(N2CCN(CCO)CC2)S/C1=C\c1ccc2c(cnn2Cc2ccc(C3CC3)cc2C(F)(F)F)c1` [Example 31, 5-[1-(4-Cyclopropyl-2-trifluoromethyl-benzyl)-1H-indazol-5-ylmethylene]-2-[4-(2-hydroxy-ethyl)-piperazin-1-yl]-thiazol-4-one] displayed an EC50 of 4.6 nM.

In turn, `COc1ccc(Cn2ncc3cc(/C=C4\SC(N5C[C@@H](O)[C@H](O)C5)=NC4=O)ccc32)c(C(F)(F)F)c1` [Example 32, 2-(3R,4R-Dihydroxy-pyrrolidin-1-yl)-5-[1-(4-methoxy-2-trifluoromethyl-benzyl)-1H-indazol-5-ylmethylene]-thiazol-4-one] came in with an EC50 of 10 nM.

Take `COc1ccc(Cn2ncc3cc(/C=C4\SC(N5CC(C(=O)O)C5)=NC4=O)ccc32)c(C(F)(F)F)c1` [Example 33, 1-{5-[1-(4-M ethoxy-2-trifluoromethyl-benzyl)-1H-indazol-5-ylmethylene]-4-oxo-4,5-dihydro-thiazol-2-yl}-azetidine-3-carboxylic acid]: the EC50 was determined as 4.4 nM.

In turn, `COc1ccc(Cn2ncc3cc(/C=C4\SC(N5CCNCC5)=NC4=O)ccc32)c(C(F)(F)F)c1` [Example 34, 5-[1-(4-Methoxy-2-trifluoromethyl-benzyl)-1H-indazol-5-ylmethylene]-2-piperazin-1-yl-thiazol-4-one] registered an EC50 of 7.5 nM.

Regarding `O=C1N=C(N2CC(C(=O)O)C2)S/C1=C\c1ccc2c(cnn2Cc2ccc(Br)cc2C(F)(F)F)c1` [Example 36, 1-{5-[1-(4-Bromo-2-trifluoromethyl-benzyl)-1H-indazol-5-ylmethylene]-4-oxo-4,5-dihydro-thiazol-2-yl}-azetidine-3-carboxylic acid], the EC50 was determined as 5.4 nM.

`O=C1N=C(N2CCC[C@H](C(=O)O)C2)S/C1=C\c1ccc2c(cnn2Cc2ccc(C(F)(F)F)cc2C(F)(F)F)c1` [Example 37, 1-{5-[1-(2,4-Bis-trifluoromethyl-benzyl)-1H-indazol-5-ylmethylene]-4-oxo-4,5-dihydro-thiazol-2-yl}-piperidine-3-(S)-carboxylic acid]: the response was half-maximal at 5.3 nM (EC50).

`O=C1N=C(N2CCC[C@@H](C(=O)O)C2)S/C1=C\c1ccc2c(cnn2Cc2ccc(C(F)(F)F)cc2C(F)(F)F)c1` [Example 38, 1-{5-[1-(2,4-Bis-trifluoromethyl-benzyl)-1H-indazol-5-ylmethylene]-4-oxo-4,5-dihydro-thiazol-2-yl}-piperidine-3-(R)-carboxylic acid] registered a concentration for a half-maximal effect (EC50) of 9 nM.

The compound `COc1ccc(Cn2ncc3cc(/C=C4\SC(N5CCC(C(=O)O)CC5)=NC4=O)ccc32)c(C(F)(F)F)c1` [Example 41, 1-{5-[1-(4-M ethoxy-2-trifluoromethyl-benzyl)-1H-indazol-5-ylmethylene]-4-oxo-4,5-dihydro-thiazol-2-yl}-piperidine-4-carboxylic acid] displayed a concentration giving a half-maximal response (EC50) of 15 nM. Against the preceding compound, the EC50 is about 1.7-fold higher.

On to `CN1CCCN(C2=NC(=O)/C(=C/c3ccc4c(cnn4Cc4ccc(C(F)(F)F)cc4C(F)(F)F)c3)S2)CC1` [Example 42, 5-[1-(2,4-Bis-trifluoromethyl-benzyl)-1H-indazol-5-ylmethylene]-2-(4-methyl-[1,4]diazepan-1-yl)-thiazol-4-one], for which the EC50 worked out at 4.2 nM.

Turning to `O=C1N=C(N2CCC[C@@H]2C(=O)O)S/C1=C\c1ccc2c(cnn2Cc2ccc(C(F)(F)F)cc2C(F)(F)F)c1` [Example 43, 1-{5-[1-(2,4-Bis-trifluoromethyl-benzyl)-1H-indazol-5-ylmethylene]-4-oxo-4,5-dihydro-thiazol-2-yl}-pyrrolidine-2-(R)-carboxylic acid], the EC50 came out at 11 nM.

Usually EC50 stands for the midpoint of the concentration-response curve. Low values mean a more potent agent, high ones a less potent agent.

The values above are taken from patent US8399681B2, “Substituted aminothiazolone indazoles as estrogen related receptor-alpha modulators” (Janssen Pharmaceutica NV, priority 2009, dated 2013).
